US20070128217A1 (priority 2003, published 2007)

What was measured:
[1] = tested on: rabbit serum obtained by immunizing a rabbit with the SARS-CoV strain Frankfurt 1; assay type: binding; design: Binding of a rabbit serum to linear peptides / Binding of a rabbit serum to looped peptides / Rabbit serum linear peptides / Rabbit serum looped peptides / Binding of a rabbit serum to linear peptides of protein N of SARS-CoV Urbani (Rabbit serum linear peptides) / Binding of a rabbit serum to looped/cyclic peptides of protein N of SARS-CoV Urbani (Rabbit serum looped peptides): unit not given here
[2] = tested on: control sera (pooled serum of ten healthy LUMC hospital workers; commercial negative donor pooled serum from the Dutch bloodbank); assay type: binding, human; design: Binding of Control serum LUMC to linear peptides / Binding of Control serum Blood-bank to linear peptides / Binding of Control serum LUMC to looped peptides / Binding of Control Serum Blood-Bank to Looped peptides / Binding of Control serum LUMC to linear peptides of the protein M of SARS-CoV Urbani / Binding of Control serum Blood-bank to linear peptides of the protein M of SARS-CoV Urbani / Binding of Control serum LUMC to looped peptides of the protein M of SARS-CoV Urbani / Binding of Control Serum Blood-Bank to Looped peptides of the protein M of SARS-CoV Urbani: unit not given here
[3] = tested on: antibodies in sera from SARS patients (sera 1a, 1b, 2, 6, 37, 62, London, SARS-yellow, SARS-green); assay type: binding, human; design: Binding of serum 6 to linear peptides of protein X1 of SARS-CoV Urbani / Binding of serum 37 to linear peptides of protein X1 of SARS-CoV Urbani / Binding of serum 6 to looped/cyclic peptide (PEPSCAN-ELISA) / Binding of serum 37 to looped/cyclic peptide (PEPSCAN-ELISA) / Binding of serum 37 to looped/cyclic peptides of protein X1 of SARS-CoV Urbani / Binding of serum 6 to linear peptides of protein X2 / Binding of serum 37 to linear peptides of protein X2 / Binding of serum 37 to looped/cyclic peptides of protein X2 of SARS-CoV Urbani / Binding of serum 6 to linear peptides of protein M of SARS-CoV Urbani / Binding of serum 37 to linear peptides of protein M of SARS-CoV Urbani / Binding of serum 6 to looped/cyclic peptides of protein M of SARS-CoV Urbani / Binding of serum 37 to looped/cyclic peptides of protein M of SARS-CoV Urbani / Binding of serum 6 to linear peptides of protein X3 of SARS-CoV Urbani / Binding of serum 37 to linear peptides of protein X3 of SARS-CoV Urbani / Binding of serum 37 to looped/cyclic peptides of protein X3 of SARS-CoV Urbani / Binding of serum 6 to linear peptides of protein X4 of SARS-CoV Urbani / Binding of serum 37 to linear peptides of protein X4 of SARS-CoV Urbani / Binding of serum 37 to looped/cyclic peptides of protein X4 of SARS-CoV Urbani / Binding of serum 6 to linear peptides of protein X5 of SARS-CoV Urbani / Binding of serum 37 to linear peptides of protein X5 of SARS-CoV Urbani / Binding of serum 37 to looped/cyclic peptides of protein X5 of SARS-CoV Urbani / Binding of serum 6 to linear peptides of protein N of SARS-CoV Urbani / Binding of serum 37 to linear peptides of protein N of SARS-CoV Urbani / Binding of serum 6 to linear peptide (PEPSCAN-ELISA) / Binding of serum 1a to looped/cyclic peptides of protein N of SARS-CoV Urbani / Binding of serum 1b to looped/cyclic peptides of protein N of SARS-CoV Urbani / Binding of serum 2 to looped/cyclic peptides of protein N of SARS-CoV Urbani / Binding of serum 6 to looped/cyclic peptides of protein N of SARS-CoV Urbani / Binding of serum 37 to looped/cyclic peptides of protein N of SARS-CoV Urbani / Binding of serum 62 to looped/cyclic peptides of protein N of SARS-CoV Urbani / Binding of serum London to looped/cyclic peptides of protein N of SARS-CoV Urbani / Binding of serum SARS-green to looped/cyclic peptides of protein N of SARS-CoV Urbani: unit not given here

For TDSGFAAYNRYRIGN, the “Rabbit serum linear peptides” value [1] was 0.0, the “Rabbit serum looped peptides” value [1] was 0.5 and the “Binding of Control Serum Blood-Bank to Looped peptides of the protein M of SARS-CoV Urbani” value [2] was 0.6. The “Binding of Control serum Blood-bank to linear peptides of the protein M of SARS-CoV Urbani” value [2] was 0.7, the “Binding of Control serum LUMC to linear peptides of the protein M of SARS-CoV Urbani” value [2] was 0.3 and the “Binding of Control serum LUMC to looped peptides of the protein M of SARS-CoV Urbani” value [2] was 0.7. For the same sequence, the “Binding of serum 1a to linear peptides of protein M of SARS-CoV Urbani” value [3] was 0.6, the “Binding of serum 1a to looped/cyclic peptides of protein M of SARS-CoV Urbani” value [3] was 0.7 and the “Binding of serum 1b to linear peptides of protein M of SARS-CoV Urbani” value [3] was 0.4. For the same sequence, the “Binding of serum 1b to looped/cyclic peptides of protein M of SARS-CoV Urbani” value [3] was 0.5, the “Binding of serum 2 to linear peptides of protein M of SARS-CoV Urbani” value [3] was 0.5 and the “Binding of serum 2 to looped/cyclic peptides of protein M of SARS-CoV Urbani” value [3] was 0.6. The “Binding of serum 6 to linear peptides of protein M of SARS-CoV Urbani” value [3] was 0.4, the “Binding of serum 6 to looped/cyclic peptides of protein M of SARS-CoV Urbani” value [3] was 0.9 and the “Binding of serum 37 to linear peptides of protein M of SARS-CoV Urbani” value [3] was 0.4. For the same sequence, the “Binding of serum 37 to looped/cyclic peptides of protein M of SARS-CoV Urbani” value [3] was 0.7, the “Binding of serum 62 to linear peptides of protein M of SARS-CoV Urbani” value [3] was 0.6 and the “Binding of serum 62 to looped/cyclic peptides of protein M of SARS-CoV Urbani” value [3] was 0.7. For the same sequence, the “Binding of serum London to linear peptides of protein M of SARS-CoV Urbani” value [3] was 0.3, the “Binding of serum London to looped/cyclic peptides of protein M of SARS-CoV Urbani” value [3] was 0.2 and the “Binding of serum SARS-green to linear peptides of protein M of SARS-CoV Urbani” value [3] was 0.3. The “Binding of serum SARS-green to looped/cyclic peptides of protein M of SARS-CoV Urbani” value [3] was 0.1, the “Binding of serum SARS-yellow to linear peptides of protein M of SARS-CoV Urbani” value [3] was 0.0 and the “Binding of serum SARS-yellow to looped/cyclic peptides of protein M of SARS-CoV Urbani” value [3] was 0.8.

With TDTIVVTEGDGISTP the “Binding of a rabbit serum to linear peptides” value [1] was 0.1, the “Binding of a rabbit serum to looped peptides” value [1] was 0.3 and the “Binding of Control Serum Blood-Bank to Looped peptides” value [2] was 0.4. For the same sequence, the “Binding of Control serum Blood-bank to linear peptides” value [2] was 0.5, the “Binding of Control serum LUMC to linear peptides” value [2] was 0.5 and the “Binding of Control serum LUMC to looped peptides” value [2] was 0.4. The “Binding of serum 1a to linear peptides of protein X1 of SARS-CoV Urbani” value [3] was 0.6, the “Binding of serum 1a to looped/cyclic peptides of protein X1 of SARS-CoV Urbani” value [3] was 0.4 and the “Binding of serum 1b to linear peptides of protein X1 of SARS-CoV Urbani” value [3] was 0.5. For the same sequence, the “Binding of serum 1b to looped/cyclic peptides of protein X1 of SARS-CoV Urbani” value [3] was 0.3, the “Binding of serum 2 to linear peptides of protein X1 of SARS-CoV Urbani” value [3] was 0.4 and the “Binding of serum 2 to looped/cyclic peptides of protein X1 of SARS-CoV Urbani” value [3] was 0.2. For the same sequence, the “Binding of serum 6 to linear peptides of protein X1 of SARS-CoV Urbani” value [3] was 0.5, the “Binding of serum 6 to looped/cyclic peptides of protein X1 of SARS-CoV Urbani” value [3] was 0.2 and the “Binding of serum 37 to linear peptides of protein X1 of SARS-CoV Urbani” value [3] was 0.5. For the same sequence, the “Binding of serum 37 to looped/cyclic peptides of protein X1 of SARS-CoV Urbani” value [3] was 0.3, the “Binding of serum 62 to linear peptides of protein X1 of SARS-CoV Urbani” value [3] was 0.4 and the “Binding of serum 62 to looped/cyclic peptides of protein X1 of SARS-CoV Urbani” value [3] was 0.3. For the same sequence, the “Binding of serum London to linear peptides of protein X1 of SARS-CoV Urbani” value [3] was 0.2, the “Binding of serum London to looped/cyclic peptides of protein X1 of SARS-CoV Urbani” value [3] was 0.1 and the “Binding of serum SARS-green to linear peptides of protein X1 of SARS-CoV Urbani” value [3] was 0.3. The “Binding of serum SARS-green to looped/cyclic peptides of protein X1 of SARS-CoV Urbani” value [3] was 0.2, the “Binding of serum SARS-yellow to linear peptides of protein X1 of SARS-CoV Urbani” value [3] was 0.2 and the “Binding of serum SARS-yellow to looped/cyclic peptides of protein X1 of SARS-CoV Urbani” value [3] was 0.4.
